Data from US6709675B1, “Thixotropic formulations for filling capsules” (Pierre Fabre Medicament, priority 1998, dated 2004).
Where a name gives a salt, the structure may show the parent alone.

What was measured:
physchem = conditions: water

solubility (physchem) | Compound | solubility in water (Solubility in water)
600 mg/mL | CCN(CC)C(=O)C1(c2ccccc2)CC1CN (centres unmarked) [milnacipran hydrochloride] | 
 | baquimast | 0.23 mg/mL
